# Assay results published in patent US20240391954A1, “MC4R AGONIST PEPTIDES” (The Regents of the University of Michigan, priority 2021, published 2024).
# Positions of bridges follow the written chain, without caps; N, C: chain ends. Non-standard residues stand in square brackets, D forms with d. Residues, ends and D or L forms follow the SMILES beside them. 4Pal = N[C@@H](Cc1ccncc1)C(=O)O; Cit = NC(=O)NCCC[C@H](N)C(=O)O; Nle = CCCC[C@H](N)C(=O)O; Aib = CC(C)(N)C(=O)O
# Key:
# Format in all cases: cell-based
# human MC4R = biological target: T1, human MC4R (Homo sapiens, UniProt P32245); test: split-luciferase cAMP sensor assay, agonist mode (measurement window 1), hMC4R; settings: agonist mode; for Emax / MC4R cAMP % max activation: % maximal activation; for Emax: read-out: MC4R cAMP % max activation; for EC50: HEK-293 cells stably expressing hMC4R, read-out: MC4R cAMP EC50
# T1 construct: host or cells: HEK-293 cells stably expressing the GScAMP22F split-luciferase cAMP sensor and hMC4R, G418 selection
# T1 sequence (P32245 whole entry): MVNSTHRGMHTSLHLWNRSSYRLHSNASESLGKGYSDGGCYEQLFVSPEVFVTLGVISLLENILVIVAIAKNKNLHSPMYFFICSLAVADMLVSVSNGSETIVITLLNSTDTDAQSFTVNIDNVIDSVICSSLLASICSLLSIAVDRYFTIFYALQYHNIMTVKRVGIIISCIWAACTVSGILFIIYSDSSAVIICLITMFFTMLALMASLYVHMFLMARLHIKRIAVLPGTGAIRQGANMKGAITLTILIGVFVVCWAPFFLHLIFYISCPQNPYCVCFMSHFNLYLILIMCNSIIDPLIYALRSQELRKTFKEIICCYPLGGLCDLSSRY
# Procedure, shortened: (§1)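 EC50 values come from a four-parameter variable-slope fit of luminescence in measurement window 1, capturing direct peptide effects on receptor-expressing cells with a cAMP22f luciferase sensor. Cells were preloaded with 4% D-luciferin, serum-free medium; 20 μM forskolin normalized for cell number and transducer efficiency.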
# human MC3R = biological target: T2, human MC3R (Homo sapiens, UniProt P41968); test: split-luciferase cAMP sensor assay, agonist mode (measurement window 1), hMC3R; settings: for EC50: HEK-293 cells stably expressing hMC3R, read-out: MC3R cAMP EC50; for EC50 / Emax / MC3R cAMP % max activation: agonist mode; for MC4R selectivity vs MC3R: MC4R versus MC3R; for Emax / MC3R cAMP % max activation: % maximal activation; for Emax: read-out: MC3R cAMP % max activation
# T2 construct: expressed in transfected cells; host or cells: HEK-293 cells stably expressing the GScAMP22F split-luciferase cAMP sensor (parent reporter line from Promega); MC3R clone generated in-house, G418 selection
# T2 sequence (P41968 whole entry): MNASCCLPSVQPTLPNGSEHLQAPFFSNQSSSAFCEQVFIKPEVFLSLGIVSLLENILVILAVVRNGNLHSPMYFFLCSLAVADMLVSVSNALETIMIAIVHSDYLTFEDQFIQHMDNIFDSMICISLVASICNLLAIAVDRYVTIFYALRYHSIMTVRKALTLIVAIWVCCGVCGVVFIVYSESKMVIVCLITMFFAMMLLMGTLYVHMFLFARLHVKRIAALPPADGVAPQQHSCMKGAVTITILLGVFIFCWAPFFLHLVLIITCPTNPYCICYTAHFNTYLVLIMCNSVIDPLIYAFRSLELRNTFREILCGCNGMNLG
# Procedure, shortened: as §1
# human MC1R = biological target: T3, human MC1R (Homo sapiens, UniProt Q01726); test: split-luciferase cAMP sensor assay, agonist mode, hMC1R; settings: MC4R versus MC1R
# T3 construct: expressed in transfected cells; host or cells: HEK-293 cells stably expressing hMC1R and the GScAMP22F cAMP sensor
# T3 sequence (Q01726 whole entry): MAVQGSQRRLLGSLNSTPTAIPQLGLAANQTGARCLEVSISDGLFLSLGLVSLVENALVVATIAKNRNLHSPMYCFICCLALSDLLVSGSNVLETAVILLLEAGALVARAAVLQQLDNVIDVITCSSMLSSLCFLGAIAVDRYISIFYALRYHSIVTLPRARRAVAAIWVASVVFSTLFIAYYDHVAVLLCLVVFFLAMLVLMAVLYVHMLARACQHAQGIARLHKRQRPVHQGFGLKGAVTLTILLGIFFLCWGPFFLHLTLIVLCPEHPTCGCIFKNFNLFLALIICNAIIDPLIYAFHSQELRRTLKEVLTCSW
# Procedure, shortened: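 HEK-293 cells stably expressing hMC1R and the GScAMP22F split-luciferase cAMP sensor, preloaded 120 min at 37° C with D-luciferin in serum-free medium. Peptide responses were taken as peak luminescence over 2-13 min minus 2-min baseline, normalized to the α-MSH ECmax. EC50 was obtained from a four-parameter variable-slope fit.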
Structure (SMILES),Emax (human MC4R),EC50 (human MC4R),EC50 (human MC3R),MC4R selectivity vs MC3R (human MC3R),MC4R selectivity vs MC1R (human MC1R),Emax (human MC3R),MC4R cAMP % max activation (human MC4R),MC3R cAMP % max activation (human MC3R)
"COc1ccc(C[C@H]2NC(=O)[C@H](CCCNC(=N)N)NC(=O)C(C)(C)NC(=O)[C@@H](NC(=O)[C@H](CCCNC(=N)N)NC(C)=O)CSSC[C@@H](C(N)=O)NC(=O)[C@H](Cc3ccccc3)NC(=O)[C@H](CCCNC(=N)N)NC2=O)cc1 [CTX-1298, Arg-cyclo(Cys-Aib-Arg-D-Tyr(4-OMe)-Arg-Phe-Cys)] (Ac-RC[Aib]R[dY](Me)RFC-NH2; disulfide 2-8 (inferred))",93%,3.3 nM,> 10000 nM,0.93,0.12,–,–,–
"CC(=O)N[C@@H](CCCNC(=N)N)C(=O)N[C@H]1CSSC[C@@H](C(N)=O)NC(=O)[C@H](Cc2ccccc2)NC(=O)[C@H](CCCNC(=N)N)NC(=O)[C@@H](Cc2ccccc2)NC(=O)[C@H](Cc2ccncc2)NC(=O)C(C)(C)NC1=O [CTX-1606, Arg-cyclo(Cys-Aib-Pal(4′)-D-Phe-Arg-Phe-Cys)] (Ac-RC[Aib][4Pal][dF]RFC-NH2; disulfide 2-8 (inferred))",92%,–,–,0.62,2.99,7.69%,–,–
"COc1ccc(C[C@H]2NC(=O)[C@H](CCCNC(=N)N)NC(=O)C(C)(C)NC(=O)[C@@H](NC(=O)[C@H](CCCNC(=N)N)NC(C)=O)CSSC[C@@H](C(N)=O)NC(=O)[C@@H](Cc3c[nH]c4ccccc34)NC(=O)[C@H](CCCNC(=N)N)NC2=O)cc1 [CTX-1297, Arg-cyclo(Cys-Aib-Arg-D-Tyr(4-OMe)-Arg-D-Trp-Cys)] (Ac-RC[Aib]R[dY](Me)R[dW]C-NH2; disulfide 2-8 (inferred))",97%,3.3 nM,> 10000 nM,">3,000",0.52,–,–,–
"CC(=O)N[C@H]1CSSC[C@@H](C(N)=O)NC(=O)[C@H](Cc2c[nH]c3ccccc23)NC(=O)[C@H](CCCNC(=N)N)NC(=O)[C@@H](Cc2ccccc2)NC(=O)[C@H](Cc2c[nH]cn2)NC(=O)C(C)(C)NC1=O [CTX-1631, cyclo(Cys-Aib-His-D-Phe-Arg-Trp-Cys)]",107%,–,–,6.91,4.09,100%,–,–
"C[C@H]1NC(=O)CSC[C@@H](C(N)=O)NC(=O)[C@H](Cc2c[nH]c3ccccc23)NC(=O)[C@H](CCCNC(=N)N)NC(=O)[C@@H](Cc2ccccc2)NC(=O)[C@H](Cc2c[nH]cn2)NC1=O [CTX-1202, Thioether-cyclo((D-Ala-His-D-Phe-Arg-Trp-Cys)]",104%,–,–,76,0.89,101%,–,–
"CC(=O)N[C@H]1CSSC[C@@H](C(N)=O)NC(=O)[C@H](Cc2ccccc2)NC(=O)[C@H](CCCNC(=N)N)NC(=O)[C@@H](Cc2ccccc2)NC(=O)[C@H](CCCNC(N)=O)NC(=O)C(C)(C)NC1=O [CTX-1636, cyclo(Cys-Aib-Cit-D-Phe-Arg-Phe-Cys)] (Ac-C[Aib][Cit][dF]RFC-NH2; disulfide 1-7 (inferred))",102%,–,–,9.44,>12,44%,–,–
"CCCC[C@H](NC(=O)[C@H](CCCNC(=N)N)NC(C)=O)C(=O)N[C@H]1CSSC[C@@H](C(N)=O)NC(=O)[C@H](Cc2ccccc2)NC(=O)[C@H](CCCNC(=N)N)NC(=O)[C@@H](Cc2ccccc2)NC(=O)[C@H](CCCNC(=N)N)NC1=O [CTX-1622, Arg-Nle-cyclo(Cys-Arg-D-Phe-Arg-Phe-Cys)] (Ac-R[Nle]CR[dF]RFC-NH2; disulfide 3-8 (inferred))",101%,–,13 nM,0.32,0.39,100%,–,–
"CC1(C)NC(=O)CSC[C@@H](C(N)=O)NC(=O)[C@H](Cc2ccccc2)NC(=O)[C@H](CCCNC(=N)N)NC(=O)[C@@H](Cc2ccccc2)NC(=O)[C@H](Cc2c[nH]cn2)NC1=O [CTX-1650, Thioether-cyclo(Aib-His-D-Phe-Arg-Phe-Cys)] ({CH2CO}-[Aib]H[dF]RFC-NH2; thioether N-6)",113%,288 nM,–,53,0.95,125%,–,–
"CC1(C)NC(=O)CSC[C@@H](C(N)=O)NC(=O)[C@H](Cc2c[nH]c3ccccc23)NC(=O)[C@H](CCCNC(=N)N)NC(=O)[C@@H](Cc2ccccc2)NC(=O)[C@H](Cc2c[nH]cn2)NC1=O [CTX-1647, Thioether-cyclo(Aib-His-D-Phe-Arg-Trp-Cys)]",109%,–,–,30,3.66,102%,–,–
"CC(=O)N[C@@H](CCCNC(=N)N)C(=O)N[C@H]1CSSC[C@@H](C(N)=O)NC(=O)[C@H](Cc2c[nH]c3ccccc23)NC(=O)[C@H](CCCNC(N)=O)NC(=O)[C@@H](Cc2ccccc2)NC(=O)[C@H](CCCNC(=N)N)NC(=O)C(C)(C)NC1=O [CTX-1270, Arg-cyclo(Cys-Aib-Arg-D-Phe-Cit-Trp-Cys)] (Ac-RC[Aib]R[dF][Cit]WC-NH2; disulfide 2-8)",98%,–,52 nM,1.88,2.49,14%,–,–
"CC(=O)N[C@H]1CSSC[C@@H](C(N)=O)NC(=O)[C@H](Cc2c[nH]c3ccccc23)NC(=O)[C@H](CCCNC(=N)N)NC(=O)[C@@H](Cc2ccccc2)NC(=O)[C@H](CCCNC(N)=O)NC(=O)[C@@H](C)NC1=O [CTX-1628, cyclo(Cys-D-Ala-Cit-D-Phe-Arg-Trp-Cys)] (Ac-C[dA][Cit][dF]RWC-NH2; disulfide 1-7 (inferred))",99%,14 nM,–,6.37,191,45%,–,–
"CC1(C)NC(=O)CSC[C@@H](C(N)=O)NC(=O)[C@H](Cc2ccccc2)NC(=O)[C@H](CCCNC(=N)N)NC(=O)[C@@H](Cc2ccccc2)NC(=O)[C@H](CCCNC(=N)N)NC1=O [CTX-1651, Thioether-cyclo(Aib-Arg-D-Phe-Arg-Phe-Cys)] ({CH2CO}-[Aib]R[dF]RFC-NH2; thioether N-6)",92%,–,> 10000 nM,>8,1.45,–,–,–
"COc1ccc(C[C@H]2NC(=O)[C@H](CCCNC(N)=O)NC(=O)C(C)(C)NC(=O)[C@@H](NC(=O)[C@H](CCCNC(=N)N)NC(C)=O)CSSC[C@@H](C(N)=O)NC(=O)[C@H](Cc3ccccc3)NC(=O)[C@H](CCCNC(=N)N)NC2=O)cc1 [CTX-1299, Arg-cyclo(Cys-Aib-Cit-D-Tyr(4-OMe)-Arg-Phe-Cys)] (Ac-RC[Aib][Cit][dY](Me)RFC-NH2; disulfide 2-8)",78%,–,> 10000 nM,>154,3.66,–,–,–
"N=C(N)NCCC[C@@H]1NC(=O)[C@@H](Cc2ccccc2)NC(=O)[C@H](Cc2c[nH]cn2)NC(=O)CNC(=O)CSC[C@@H](C(N)=O)NC(=O)[C@H](Cc2c[nH]c3ccccc23)NC1=O [CTX-1644, Thioether-cyclo(Gly-His-D-Phe-Arg-Trp-Cys)] ({CH2CO}-GH[dF]RWC-NH2; thioether N-6)",111%,2.3 nM,–,53,4.84,107%,–,–
"CC(=O)N[C@@H](CCCNC(=N)N)C(=O)N[C@H]1CSSC[C@@H](C(N)=O)NC(=O)[C@@H](Cc2ccccc2)NC(=O)[C@H](CCCNC(=N)N)NC(=O)[C@@H](Cc2ccccc2)NC(=O)[C@H](CCCNC(=N)N)NC(=O)[C@@H](C)NC1=O [CTX-1265, Arg-cyclo(Cys-D-Ala-Arg-D-Phe-Arg-D-Phe-Cys)] (Ac-RC[dA]R[dF]R[dF]C-NH2; disulfide 2-8 (inferred))",–,–,–,0.04,0.02,–,(71%),(60%)
"CC(=O)N[C@@H](CCCNC(=N)N)C(=O)N[C@H]1CSSC[C@@H](C(N)=O)NC(=O)[C@@H](Cc2c[nH]c3ccccc23)NC(=O)[C@H](CCCNC(=N)N)NC(=O)[C@@H](Cc2ccccc2)NC(=O)[C@H](CCCNC(N)=O)NC(=O)[C@@H](C)NC1=O [CTX-1286, Arg-cyclo(Cys-D-Ala-Cit-D-Phe-Arg-D-Trp-Cys)] (Ac-RC[dA][Cit][dF]R[dW]C-NH2; disulfide 2-8)",91%,–,–,2.16,3.4,24%,–,–
"CC(=O)N[C@@H](CCCNC(=N)N)C(=O)N[C@H]1CSSC[C@@H](C(N)=O)NC(=O)[C@@H](Cc2ccccc2)NC(=O)[C@H](CCCNC(=N)N)NC(=O)[C@@H](Cc2ccccc2)NC(=O)[C@H](CCCNC(=N)N)NC(=O)[C@@H](C)NC1=O [CTX-1257, Arg-cyclo(Cys-D-Ala-Arg-D-Phe-Arg-D-Phe-Cys)] (Ac-RC[dA]R[dF]R[dF]C-NH2; disulfide 2-8 (inferred))",–,692 nM,–,0.06,0.02,–,(94%),(88%)
